Our source for the IC50 values is patent US20240148821A1, “PHARMACEUTICAL USE OF CYCLIC PEPTIDE COMPOUND” (CHUGAI SEIYAKU KABUSHIKI KAISHA, priority 2021, published 2024).

Bridge positions count the residues as written; N and C are the ends. Square brackets hold non-standard residues; d marks the D form. Peptide text beside a SMILES is read from it. * marks the point of attachment. hPhe(3,5-F2-4-CF3) = N[C@@H](CCc1cc(F)c(C(F)(F)F)c(F)c1)C(=O)O; hPhe(3-Cl-4-CF3) = N[C@@H](CCc1ccc(C(F)(F)F)c(Cl)c1)C(=O)O; hPhe(3-F,4-CF3) = N[C@@H](CCc1ccc(C(F)(F)F)c(F)c1)C(=O)O; Phe(4-CF3) = N[C@@H](Cc1ccc(C(F)(F)F)cc1)C(=O)O; NMePhe(3-Cl) = CN[C@@H](Cc1cccc(Cl)c1)C(=O)O; NMePhe(4-Cl) = CN[C@@H](Cc1ccc(Cl)cc1)C(=O)O; NMePhe(4-Me) = CN[C@@H](Cc1ccc(C)cc1)C(=O)O; NMeGly(cPent) = CN[C@H](C(=O)O)C1CCCC1; Phe(3-I) = N[C@@H](Cc1cccc(I)c1)C(=O)O; Pro(4,4-F2) = O=C(O)[C@@H]1CC(F)(F)CN1; NMeCha = CN[C@@H](CC1CCCCC1)C(=O)O; NEtLeu = CCN[C@@H](CC(C)C)C(=O)O; NMeCba = CN[C@@H](CC1CCC1)C(=O)O; NMeChg = CN[C@H](C(=O)O)C1CCCCC1; NMeF = CN[C@@H](Cc1ccccc1)C(=O)O; NMeT = CN[C@H](C(=O)O)[C@@H](C)O; NMeD = CN[C@@H](CC(=O)O)C(=O)O; NMeL = CN[C@@H](CC(C)C)C(=O)O; NMeNva = CCC[C@H](NC)C(=O)O; NMeV = CN[C@H](C(=O)O)C(C)C; d(β3hA) = C[C@@H](N)CC(=O)O; NMeS = CN[C@@H](CO)C(=O)O; NMeA = CN[C@@H](C)C(=O)O; NMeAib = CNC(C)(C)C(=O)O; Piperidide = C1CCN(*)CC1; Pyrrolidide = C1CCN(*)C1; Ac5c = NC1(C(=O)O)CCCC1; Aze = O=C(O)[C@@H]1CCN1; Sar = CNCC(=O)O; Propyl = CCC* Some results are limits rather than exact numbers.

This experiment concerns Human pancreatic cancer cell line AsPC-1 (G12D mutation Kras). The experiment in a line: AsPC-1 cell growth inhibition (AsPC-1 CGI). It counts as cell-based. The conditions noted are these: read-out: AsPC-1 cell growth inhibition, 50% growth inhibitory concentration (IC50 value); 96 hours, CellTiter-Glo, values classified in ranges.
Method: Test compounds were serially dilated with dimethyl sulfoxide, and 200 nL was then dispensed to a U-bottom 96-well plate using Labcyte Echo. […] The cell suspension was dispensed to a. plate containing a test compound at 100 μL per well and incubated at 37° C. in a 5% carbon dioxide gas incubator. 96 hours later, 80 μL of CellTiter-Glo (Promega) was added to each well and fluorescence was measured.
Consider `CC[C@H](C)[C@@H]1NC(=O)[C@H](C)N(C)C(=O)C[C@@H](C)NC(=O)[C@H](C(C)C)N(C)C(=O)[C@H](Cc2ccccc2)N(C)C(=O)[C@H](CC(C)C)N(C)C(=O)[C@H](CCc2ccc(C(F)(F)F)c(Cl)c2)NC(=O)CN(C)C(=O)[C@H](Cc2ccc(Cl)cc2)N(C)C(=O)[C@@H]2CCN2C(=O)CN(C)C1=O` [Compound 994] (cyclo([Aze][NMePhe(4-Cl)][Sar][hPhe(3-Cl-4-CF3)][NMeL][NMeF][NMeV][d(β3hA)][NMeA]I[Sar])), for which the IC50 is above 500 nM.
With `CC[C@H](C)[C@@H]1NC(=O)[C@H](CC(C)C)N(C)C(=O)C[C@@H](C(=O)N(C)C)N(C)C(=O)[C@H](C2CCCC2)N(C)C(=O)C2(CCCC2)NC(=O)[C@H](Cc2cccc(Cl)c2)N(C)C(=O)[C@H](CCc2ccc(C(F)(F)F)c(Cl)c2)NC(=O)CN(C)C(=O)[C@H](CC2CCCCC2)N(C)C(=O)[C@@H]2CCN2C(=O)[C@H](C)N(C)C1=O` [Compound 179] ([NMeL]I[NMeA][Aze][NMeCha][Sar][hPhe(3-Cl-4-CF3)][NMePhe(3-Cl)][Ac5c][NMeGly(cPent)][NMeD]-NMe2; lactam N-11), the IC50 was above 500 nM.
On to `CC[C@H](C)[C@@H]1NC(=O)[C@H](CC(C)C)N(C)C(=O)C[C@@H](C(=O)N2CCCCC2)N(C)C(=O)[C@H]([C@@H](C)O)N(C)C(=O)C2(CCCC2)NC(=O)[C@@H]2CCCN2C(=O)[C@H](CCc2ccc(C(F)(F)F)c(Cl)c2)NC(=O)CN(C)C(=O)[C@H](CC2CCCCC2)N(C)C(=O)CN(C)C(=O)CN(C)C1=O` [Compound 1041] ([NMeL]I[Sar][Sar][NMeCha][Sar][hPhe(3-Cl-4-CF3)]P[Ac5c][NMeT][NMeD]-Piperidide; lactam N-11), for which the IC50 was above 500 nM.
For `CCCOC[C@H]1C(=O)N(C)CC(=O)N[C@@H](CCc2ccc(C(F)(F)F)c(F)c2)C(=O)N2CCC[C@H]2C(=O)NC2(CCCC2)C(=O)N(C)[C@@H](C2CCCC2)C(=O)N(C)[C@H](C(=O)N2CCCC2)CC(=O)N(C)[C@@H](CC(C)C)C(=O)N[C@@H]([C@@H](C)CC)C(=O)N(C)[C@@H](C)C(=O)N2CC[C@H]2C(=O)N1C` [Compound 987] ([NMeL]I[NMeA][Aze][NMeS](Propyl)[Sar][hPhe(3-F,4-CF3)]P[Ac5c][NMeGly(cPent)][NMeD]-Pyrrolidide; lactam N-11), the IC50 is at most 20 nM.
As for `CC[C@H](C)[C@@H]1NC(=O)[C@H](C2CCCC2)N(C)C(=O)C[C@@H](C)NC(=O)[C@H](C(C)C)N(C)C(=O)C2(CCCC2)NC(=O)[C@@H]2CCCN2C(=O)[C@H](CCc2ccc(C(F)(F)F)c(Cl)c2)NC(=O)CN(C)C(=O)[C@H](CC2CCCCC2)N(C)C(=O)CN(C)C(=O)CN(C)C1=O` [Compound 857] (cyclo([Ac5c][NMeV][d(β3hA)][NMeGly(cPent)]I[Sar][Sar][NMeCha][Sar][hPhe(3-Cl-4-CF3)]P)), the IC50 was above 500 nM.
For `CCC[C@H]1C(=O)N[C@@H]([C@@H](C)CC)C(=O)N(C)CC(=O)N(C)CC(=O)N(C)[C@@H](Cc2ccc(C)cc2)C(=O)N(C)CC(=O)N[C@@H](CCc2cc(F)c(C(F)(F)F)c(F)c2)C(=O)N2CC(F)(F)C[C@H]2C(=O)NC2(CCCC2)C(=O)N(C)[C@@H](C2CCCCC2)C(=O)N(C)[C@H](C(=O)N2CCCC2)CC(=O)N1C` [Compound 1306] ([NMeNva]I[Sar][Sar][NMePhe(4-Me)][Sar][hPhe(3,5-F2-4-CF3)][Pro(4,4-F2)][Ac5c][NMeChg][NMeD]-Pyrrolidide; lactam N-11), the IC50 is at most 20 nM.
For `CC[C@H](C)[C@@H]1NC(=O)[C@H](CC(C)C)N(CC)C(=O)C[C@@H](C(=O)N(C)C)N(C)C(=O)[C@H](C2CCCC2)N(C)C(=O)C2(CCCC2)NC(=O)[C@@H]2CCCN2C(=O)[C@H](CCc2ccc(C(F)(F)F)c(Cl)c2)NC(=O)CN(C)C(=O)[C@H](Cc2ccc(C)cc2)N(C)C(=O)[C@@H]2CCN2C(=O)[C@H](C)NC1=O` [Compound 1282] ([NEtLeu]IA[Aze][NMePhe(4-Me)][Sar][hPhe(3-Cl-4-CF3)]P[Ac5c][NMeGly(cPent)][NMeD]-NMe2; lactam N-11) the value was at most 20 nM; for `CC[C@H](C)[C@@H]1NC(=O)[C@H](CC(C)C)N(C)C(=O)C[C@@H](C)NC(=O)[C@H](C(C)C)N(C)C(=O)C2(CCCC2)NC(=O)[C@@H]2CCCN2C(=O)[C@H](CCc2ccc(C(F)(F)F)c(Cl)c2)NC(=O)CN(C)C(=O)[C@H](CC2CCC2)N(C)C(=O)CN(C)C(=O)CN(C)C1=O` [Compound 75] (cyclo([Ac5c][NMeV][d(β3hA)][NMeL]I[Sar][Sar][NMeCba][Sar][hPhe(3-Cl-4-CF3)]P)), above 500 nM; for `CC[C@H](C)[C@@H]1NC(=O)[C@H](CC(C)C)N(C)C(=O)C[C@@H](C(=O)N2CCCCC2)N(C)C(=O)[C@H](CC(C)C)NC(=O)C(C)(C)N(C)C(=O)[C@H](Cc2ccc(C(F)(F)F)cc2)NC(=O)[C@H](Cc2cccc(I)c2)NC(=O)CN(C)C(=O)[C@H](CC2CCCCC2)N(C)C(=O)CN(C)C(=O)CN(C)C1=O` [Compound 336] ([NMeL]I[Sar][Sar][NMeCha][Sar][Phe(3-I)][Phe(4-CF3)][NMeAib]L[NMeD]-Piperidide; lactam N-11), above 500 nM.
